We go through four compounds from US5739131A, “Benzene derivatives and pharmaceutical composition” (Kureha Chemical Industry Co., Ltd., priority 1994, dated 1998).

Series [1] deals with kidney disease model rats. Briefly: Action to survival time of kidney diseased animals. Format: in vivo, Sprague-Dawley female rats. The conditions noted are these: 20 mg/kg/day per os, observation eight weeks (upper limit); control 5.0.
Series [2] deals with kidney disease model rats. The series can be described thus: Action to depress blood pressure (tail cuff method). Format: in vivo, Sprague-Dawley female rats. The conditions noted are these: 20 mg/kg per os; for Blood pressure: systolic, average, two days from administration, control (water) 203.
Series [3] addresses T1, angiotensin II receptor subtype 2 (AT2) (Bos taurus, UniProt G5E6F7).
T1 construct: receptor: from cerebellar cortex in bovine; from tissue; host or cells: bovine cerebellar cortex
T1 sequence (G5E6F7 1-362): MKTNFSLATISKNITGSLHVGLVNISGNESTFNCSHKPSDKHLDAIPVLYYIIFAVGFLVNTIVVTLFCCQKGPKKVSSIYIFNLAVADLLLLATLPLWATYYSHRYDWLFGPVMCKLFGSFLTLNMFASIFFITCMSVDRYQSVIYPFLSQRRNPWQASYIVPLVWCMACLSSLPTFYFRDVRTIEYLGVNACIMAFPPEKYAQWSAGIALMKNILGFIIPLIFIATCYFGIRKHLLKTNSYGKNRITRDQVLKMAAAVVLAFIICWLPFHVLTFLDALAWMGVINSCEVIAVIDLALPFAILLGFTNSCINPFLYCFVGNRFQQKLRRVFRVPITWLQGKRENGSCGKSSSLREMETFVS
The series can be described thus: Binding assay, angiotensin II receptor subtype 2 (AT2). On the set-up: species or system bovine (cerebellar cortex). The conditions noted are these: 100 μM, AT2, bovine cerebellar cortex, 37° C. 1 hour; read-out: Binding inhibition % in 100 μm, AT2.

The target in series [4] is T2, angiotensin II receptor subtype 1 (AT1) (Oryctolagus cuniculus, UniProt P34976).
T2 construct: receptor: from adrenal glands in rabbits; from tissue; host or cells: rabbit adrenal glands
T2 sequence (P34976 1-359): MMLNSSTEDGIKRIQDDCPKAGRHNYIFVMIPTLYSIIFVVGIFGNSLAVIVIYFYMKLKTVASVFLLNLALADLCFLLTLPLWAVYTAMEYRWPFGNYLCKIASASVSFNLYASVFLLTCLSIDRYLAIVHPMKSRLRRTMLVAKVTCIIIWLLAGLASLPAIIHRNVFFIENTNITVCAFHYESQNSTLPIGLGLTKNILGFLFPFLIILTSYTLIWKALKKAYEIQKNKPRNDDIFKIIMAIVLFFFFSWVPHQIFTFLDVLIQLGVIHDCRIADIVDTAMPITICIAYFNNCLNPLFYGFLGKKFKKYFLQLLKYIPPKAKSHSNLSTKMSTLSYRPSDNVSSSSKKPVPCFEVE
The series can be described thus: Binding assay, angiotensin II receptor subtype 1 (AT1). The conditions noted are these: 100 μM, AT1, rabbit adrenal glands. More on the design: species or system rabbit (adrenal glands).

For series [5], the system named is kidney disease model rats. The series can be described thus: Renal function indicatory value (action to kidney diseases). Format: in vivo, Sprague-Dawley female rats. The note with it: 20 mg/kg/day per os, two weeks; for Creatinine clearance: 24 hours urine, control 0.20; for Creatinine / Urea nitrogen: serum; for Creatinine: control 2.0; for Urea nitrogen: control 100.

A further series has as its system mice. The series can be described thus: Acute toxicity, single oral dose. Format: in vivo. The note with it: mouse, in vivo, po, 500 mg/kg. As to the method:
Five-week-old ICR female mice (5 mice per group) were bred for acclimation for a week. Then, the compounds of the present invention were dissolved or dispersed in an aqueous solution of 0.5% methylcellulose, and orally administered to the mice in a single dosage (500 mg/kg).

The next series has as its system hyperlipemia model rats. The conditions noted are these: cited from earlier work.
Another series has as its system renal dysfunction. The note with it: in vivo; cited from earlier work.

Turning to `CCCCC(=O)N(Cc1ccc(-c2nn[nH]n2)cc1)c1cc(C(=O)N2CCOCC2)ccc1N(C)C` [Compound No. 604, 4-dimethylamino-3-N-[[4-(1H-tetrazol-5-yl)phenylmethyl]valeramido]benzoic acid morpholide], in series [1], the Average survival time is 7.0 weeks. Also, the Blood pressure in series [2] is given as 200 mmHg. The inhibition (in general, the change of the read-out against control, counted positive when it falls) at 100 µM in series [3] worked out at 0%. The same compound displayed an inhibition at 100 µM in series [4] of 15%. In series [5], this compound displayed a Creatinine clearance of 0.28 mL/min, a Creatinine of 1.8 mg/dL and a Urea nitrogen of 75 mg/dL. In the series on mice, the “Number of deaths/number of survivals” value is recorded as 0/5.

`CCCCc1nc(Cl)c(CO)n1Cc1ccc(-c2ccccc2-c2nnn[nH]2)cc1` [DuP753, 2-butyl-4-chloro-5-(hydroxymethyl)-1-[[2'-(1H-tetrazol-5-yl)biphenyl-4-yl]methyl]imidazole, reference compound]: the Blood pressure entry in the series on hyperlipemia model rats (large dose) is “an evident reduction of blood pressure was observed”. In addition, in the series on hyperlipemia model rats (lower dose), the “effect to blood pressure” value was “without practical effect to blood pressure” and the kidney disease improvement result is “the kidney disease was improved in a lower dose”. In series [1], this compound yielded an Average survival time of 6.9 weeks. Moreover, the “action to depress the blood pressure” value in series [2] (in comparison with control group) is reported as “clearly showed the action to depress the blood pressure”. The compound further gave a Blood pressure in series [2] of 135 mmHg. In series [5], this compound displayed a Creatinine clearance of 0.32 mL/min, a Creatinine of 1.6 mg/dL and a Urea nitrogen of 80 mg/dL.

As to `C[C@H](CS)C(=O)N1CCC[C@H]1C(=O)O` [captoril], in the series on renal dysfunction, the Blood pressure result is on record as “blood pressure is lowered” and the “progress of renal dysfunction” value is on record as “the progress of renal dysfunction is improved”.

As to `CCOC(=O)[C@H](CCc1ccccc1)N[C@@H](C)C(=O)N1CCC[C@H]1C(=O)O` [enalapril], in the series with renal dysfunction, the Blood pressure entry is given as “blood pressure is lowered” and the “progress of renal dysfunction” value is listed as “the progress of renal dysfunction is improved”.
